# Experiments:
# Trypsin = Trypsin (Sus scrofa, UniProt P00761); test: Inhibitory activity against porcine pancreatic trypsin (TRP)
# Chymase = target: T1, Chymase (Homo sapiens, UniProt P23946); test: Inhibitory activity against human serine protease chymase
# T1 sequence (P23946 whole entry): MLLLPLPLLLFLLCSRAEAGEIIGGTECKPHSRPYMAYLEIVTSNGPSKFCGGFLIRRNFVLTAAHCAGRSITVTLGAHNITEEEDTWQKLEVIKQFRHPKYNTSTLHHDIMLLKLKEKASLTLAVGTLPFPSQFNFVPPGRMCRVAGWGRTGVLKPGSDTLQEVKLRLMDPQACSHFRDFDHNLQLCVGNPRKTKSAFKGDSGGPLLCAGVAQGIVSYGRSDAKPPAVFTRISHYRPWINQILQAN
# Chymotrypsinogen A = Chymotrypsinogen A (Bos taurus, UniProt P00766); test: Inhibitory activity against alpha-chymotrypsin (alpha-CT)
# Cathepsin G = target: T2, Cathepsin G (Homo sapiens, UniProt P08311); test: Inhibitory activity against human leukocyte cathepsin G
# T2 sequence (P08311 whole entry): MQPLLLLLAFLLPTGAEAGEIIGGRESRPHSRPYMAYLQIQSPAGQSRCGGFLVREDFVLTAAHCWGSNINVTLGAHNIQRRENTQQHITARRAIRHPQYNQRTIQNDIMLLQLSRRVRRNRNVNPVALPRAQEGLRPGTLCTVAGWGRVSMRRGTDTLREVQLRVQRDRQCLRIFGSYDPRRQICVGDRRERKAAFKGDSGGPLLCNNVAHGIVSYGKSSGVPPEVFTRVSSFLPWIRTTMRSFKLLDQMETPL
# Sequence of Trypsin (P00761 whole entry): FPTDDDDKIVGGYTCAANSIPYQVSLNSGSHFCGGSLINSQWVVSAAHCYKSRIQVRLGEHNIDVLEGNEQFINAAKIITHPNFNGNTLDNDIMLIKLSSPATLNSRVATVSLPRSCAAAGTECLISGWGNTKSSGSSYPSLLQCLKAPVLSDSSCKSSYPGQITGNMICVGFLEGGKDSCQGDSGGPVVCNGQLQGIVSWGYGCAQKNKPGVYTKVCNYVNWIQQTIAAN
Compound,IC50 (Trypsin) [µM],IC50 (Chymase) [nM],IC50 (Chymotrypsinogen A) [µM],IC50 (Cathepsin G) [µM]
O=C(CCc1ccccc1Cl)N[C@@H](Cc1ccccc1)C(=O)CCl,85,600,97,
O=C(N[C@@H](Cc1ccccc1)C(=O)CCl)c1ccccc1,240,1300,9.3,
O=C(CCc1ccc(F)cc1)N[C@@H](Cc1ccccc1)C(=O)CCl,> 1000,2400,100,
CCc1ccc(CCC(=O)N[C@@H](Cc2ccccc2)C(=O)CCl)cc1,120,,37,
O=C(CCc1ccc(C(F)(F)F)cc1)N[C@@H](Cc1ccccc1)C(=O)CCl,30,,17,
O=C(CCCc1ccccc1)N[C@@H](Cc1ccccc1)C(=O)CCl,690,2500,26,
O=C(/C=C/c1ccccc1)N[C@@H](Cc1ccccc1)C(=O)CCl,210,15000,8.7,
COc1ccccc1CCC(=O)N[C@@H](Cc1ccccc1)C(=O)CCl,34,,2.7,
O=C(CCc1cccc(C(F)(F)F)c1)N[C@@H](Cc1ccccc1)C(=O)CCl,34,,20,
Cc1cccc(CCC(=O)N[C@@H](Cc2ccccc2)C(=O)CCl)c1,290,430,11,
COc1ccc(CCC(=O)N[C@@H](Cc2ccccc2)C(=O)CCl)cc1,> 1000,,2.2,9.3
O=C(CCc1ccccc1F)N[C@@H](Cc1ccccc1)C(=O)CCl,,360,34,
O=C(CCc1ccccc1)N[C@@H](Cc1ccccc1)C(=O)CCl,> 1000,,37,
COc1cccc(CCC(=O)N[C@@H](Cc2ccccc2)C(=O)CCl)c1,> 1000,,85,
O=C(CCc1cccc(Cl)c1)N[C@@H](Cc1ccccc1)C(=O)CCl,44,890,23,
COc1ccc(CCC(=O)N[C@@H](Cc2ccccc2)C(=O)CCl)cc1OC,> 1000,,51,
O=C(N[C@@H](Cc1ccccc1)C(=O)CCl)OCc1ccccc1,210,400,17,
O=C(Cc1ccccc1)N[C@@H](Cc1ccccc1)C(=O)CCl,> 1000,4700,20,
Cc1ccc(CCC(=O)N[C@@H](Cc2ccccc2)C(=O)CCl)cc1,260,300,97,
O=C(CCc1cccc(F)c1)N[C@@H](Cc1ccccc1)C(=O)CCl,> 1000,1200,44,
O=C(CCc1cccc(O)c1)N[C@@H](Cc1ccccc1)C(=O)CCl,75,1800,5.2,
O=C(CCc1ccc(Cl)cc1)N[C@@H](Cc1ccccc1)C(=O)CCl,> 1000,1900,18,
O=C(CCc1cccc(Cl)c1Cl)N[C@@H](Cc1ccccc1)C(=O)CCl,97,400,10,
Cc1ccc(S(=O)(=O)N[C@@H](Cc2ccccc2)C(=O)CCl)cc1 [TPCK],200,3300,140,110
Cc1ccccc1CCC(=O)N[C@@H](Cc1ccccc1)C(=O)CCl,600,780,12,
CC(C)c1ccc(CCC(=O)N[C@@H](Cc2ccccc2)C(=O)CCl)cc1,4,,39,
COc1cccc(CCC(=O)N[C@@H](Cc2ccccc2)C(=O)CCl)c1OC,> 1000,,2.2,
O=C(CCc1ccc(O)cc1)N[C@@H](Cc1ccccc1)C(=O)CCl,> 1000,2700,14,
O=C(CCCCc1ccccc1)N[C@@H](Cc1ccccc1)C(=O)CCl,> 1000,1200,18,
O=C(CCc1ccc(Cl)c(Cl)c1)N[C@@H](Cc1ccccc1)C(=O)CCl,28,3700,4.2,
